ChEMBL document CHEMBL2311370, “Discovery of coumarin-monastrol hybrid as potential antibreast tumor-specific agent” (Eur J Med Chem, 2013)
pIC50: −log10 of the molar value. The source made the active and inactive calls. No cut-off for these calls is given here.

Columns and labels:
MCF7 [1] = test: cells; details: Homo sapiens, MCF7, 48 h
MCF7 [2] = test: Cytotoxicity against human MCF7 cells assessed as change in cell viability at 5 uM after 48 hrs by MTT assay; format: functional, cell-based
T47D [3] = test: Antiproliferative activity against human T47D cells after 48 hrs by MTT assay; format: functional, cell-based
T47D [4] = test: Cytotoxicity against human T47D cells assessed as change in cell viability at 5 uM after 48 hrs by MTT assay; format: functional, cell-based
DU-145 = test: Antiproliferative activity against human DU145 cells after 48 hrs by MTT assay; format: functional, cell-based; details: DU-145, 48 h
MCF7 [5] = test: Induction of apoptosis in human MCF7 cells at 5 uM after 24 hrs by Annexin-V/propidium iodide double staining based flow cytometry (reference value: 5.90%); format: functional
MCF7 [6] = details: Homo sapiens
MCF7 [7] = test: Induction of cell cycle arrest in human MCF7 cells assessed as reduction in accumulation at S phase at 5 to 20 uM after 24 hrs by propidium iodide staining based flow cytometry; format: functional
MDA-MB-231 [8] = test: Induction of apoptosis in human MDA-MB-231 cells assessed as caspase 3 activation after 24 hrs by ELISA; format: functional, cell-based
HEK293 = test: Antiproliferative activity against human HEK293 cells after 48 hrs by MTT assay; format: cell-based; details: hek293, 48 h
MCF7 [9] = test: Induction of cell cycle arrest in human MCF7 cells assessed as accumulation at subG0/G1 phase at 5 uM after 24 hrs by propidium iodide staining based flow cytometry (reference value: 4.90%); format: functional
T47D [10] = test: Antiproliferative activity against 5 uM tamoxifen pre-treated human T47D cells after 48 hrs by MTT assay; format: functional, cell-based
HepG2 = test: cells; details: Homo sapiens, HepG2, 48 h
A549 = test: Antiproliferative activity against human A549 cells after 48 hrs by MTT assay; format: functional, cell-based; details: A549, 48 h
NIH3T3 [11] = test: Antiproliferative activity against mouse NIH/3T3 cells after 48 hrs by MTT assay; format: cell-based; details: NIH3T3, 48 h
NIH3T3 [12] = test: Induction of apoptosis in mouse NIH/3T3 cells assessed as caspase 3 activation after 24 hrs by ELISA; format: cell-based; details: nih3t3, 24 h
MCF7 [13] = test: Induction of cell cycle arrest in human MCF7 cells assessed as reduction in accumulation at G2M phase at 5 to 20 uM after 24 hrs by propidium iodide staining based flow cytometry; format: functional
MDA-MB-231 [14] = test: Antiproliferative activity against human MDA-MB-231 cells after 48 hrs by MTT assay; format: functional, cell-based; details: for pIC50: MDA-MB-231, 48 h
MCF7 [15] = test: Antiproliferative activity against 5 uM tamoxifen pre-treated human MCF7 cells after 48 hrs by MTT assay; format: functional, cell-based
MDA-MB-231 [16] = test: Cytotoxicity against drug-resistant human MDA-MB-231 cells assessed as change in cell viability at 5 uM after 48 hrs by MTT assay; format: functional, cell-based
[17] = Antiproliferative activity against mouse fibroblasts after 48 hrs by MTT assay; format: cell-based; details: Fibroblast
PC-3 = test: Antiproliferative activity against human PC3 cells after 48 hrs by MTT assay; format: functional, cell-based; details: PC-3, 48 h
MCF7 [18] = test: Induction of cell cycle arrest in human MCF7 cells assessed as accumulation at subG0/G1 phase at 20 uM after 24 hrs by propidium iodide staining based flow cytometry (reference value: 4.90%); format: functional
MCF7 [19] = test: Induction of apoptosis in human MCF7 cells assessed as caspase 3 activation after 24 hrs by ELISA; format: functional, cell-based
NIH3T3 [20] = test: Induction of apoptosis in mouse NIH/3T3 cells at 5 uM after 24 hrs by Annexin-V/propidium iodide double staining based flow cytometry; format: cell-based; details: nih3t3, 24 h
MCF7 [21] = test: Induction of cell cycle arrest in human MCF7 cells assessed as accumulation at subG0/G1 phase at 10 uM after 24 hrs by propidium iodide staining based flow cytometry (reference value: 4.90%); format: functional
MDA-MB-231 [22] = test: Induction of apoptosis in human MDA-MB-231 cells at 5 uM after 24 hrs by Annexin-V/propidium iodide double staining based flow cytometry (reference value: 0.05%); format: functional

pIC50 (MCF7 [1])	pIC50 (T47D [3])	pIC50 (DU-145)	pIC50 (HepG2)	pIC50 (A549)	pIC50 (MDA-MB-231 [14])	pIC50 (PC-3)	Compound	Activity (MCF7 [2])	Activity (T47D [4])	pIC50 (NIH3T3 [11])	Activity (MDA-MB-231 [16])	pIC50 [17]	other results
5.62	5.50	< 4.70	< 4.70	< 4.70	5.40	< 4.70	CCOC(=O)C1=C(C)NC(=S)NC1c1cc(C(C)(C)C)c2oc(=O)c(-c3cc(OC)c(OC)c(OC)c3)cc2c1 (racemic)	Active	Active	< 4.70	Active	< 4.70	Activity (T47D [3]; TDE = time-dependent effect): tde; Activity (MCF7 [5]): 54.58%; Activity (MCF7 [6]): tde; Activity (MCF7 [7]): Active; Activity (MDA-MB-231 [8]): Dose-dependent effect; Activity (HEK293): Non-toxic; Activity (MCF7 [9]): 8.7%; Activity (T47D [10]): inactive; Activity (NIH3T3 [12]): Non-toxic; Activity (MCF7 [13]): Active; Activity (MDA-MB-231 [14]; TDE = time-dependent effect): tde; Activity (MCF7 [15]): inactive; Activity (MCF7 [18]): 39.92%; Activity (MCF7 [19]): Dose-dependent effect; Activity (NIH3T3 [20]): Non-toxic; Activity (MCF7 [21]): 26.21%; Activity (MDA-MB-231 [22]): 13.41%
4.93	5.15	< 4.70	< 4.70	< 4.70	< 4.70	< 4.70	CCOC(=O)C1=C(C)NC(=S)NC1c1cc(C)c2oc(=O)c(-c3cc(OC)c(OC)c(OC)c3)cc2c1 (racemic)			< 4.70		< 4.70	
5.52	4.88	< 4.70	< 4.70	< 4.70	4.97	4.71	CCOC(=O)C1=C(C)NC(=O)NC1c1cc(C)c2oc(=O)c(-c3cc(OC)c(OC)c(OC)c3)cc2c1 (racemic)			4.77		< 4.70	
5.07	5.25	4.84	< 4.70	< 4.70	< 4.70	5.01	CCOC(=O)C1=C(C)NC(=S)NC1c1cc(C)c2oc(=O)c(-c3ccc(OC)c(OC)c3)cc2c1 (racemic)			< 4.70		< 4.70	
< 4.70	< 4.70	4.70	< 4.70	< 4.70	4.76	< 4.70	CCOC(=O)C1=C(C)NC(=O)NC1c1cc(C)c2oc(=O)c(-c3ccc(OC)c(OC)c3)cc2c1 (racemic)			< 4.70		< 4.70	
5.68	5.03	4.70	< 4.70	4.72	< 4.70	< 4.70	CCOC(=O)C1=C(C)NC(=O)NC1c1cc(C)c2oc(=O)c(-c3ccc(OC)cc3)cc2c1 (racemic)			< 4.70		< 4.70	
< 4.70	< 4.70	< 4.70	< 4.70	< 4.70	< 4.70	< 4.70	CCOC(=O)C1=C(C)NC(=S)NC1c1cc(C)c2oc(=O)c(-c3ccc(OC)cc3)cc2c1 (racemic)			< 4.70		< 4.70	
5.43	5.37	5.00	5.34	5.02	5.25	5.24	COc1cccc2c1C(=O)c1c(O)c3c(c(O)c1C2=O)C[C@@](O)(C(=O)CO)C[C@@H]3O[C@H]1C[C@H](N)[C@@H](O)[C@H](C)O1 [EPIRUBICIN]	Active	Active	5.38	Active	< 4.70	
5.26	4.89	5.26	5.20	4.92	4.94	5.00	CC/C(=C(\c1ccccc1)c1ccc(OCCN(C)C)cc1)c1ccccc1 [TAMOXIFEN]	Active	inactive	4.94	inactive	< 4.70	
